Results taken from patent US7803930B2, “Antisense modulation of apolipoprotein B-expression” (Isis Pharmaceuticals, Inc., priority 2002, dated 2010).
In the oligonucleotide strings, read from the 5' end, every base follows the letter of its sugar. An asterisk marks phosphorothioate; unmarked linkages are phosphodiester. Other units and linkages are bracketed, terminal groups are in braces. A string of capitals states the bases alone. e = 2'-O-(2-methoxyethyl) (MOE); [5mC] = 5-methylcytosine; d = 2'-deoxy (DNA)

Key:
[1] = ob/ob mice (Example 50): cholesterol, lipid, triglyceride, liver enzyme and glucose levels; type: in vivo, mouse; conditions: high fat high cholesterol diet, 50 mg/kg i.p. twice a week, six weeks
Summary of the method: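 Ob/ob mice on 60% kcal fat diet with 0.15% cholesterol received 50 mg/kg oligonucleotide i.p. twice weekly for six weeks, with saline and control oligonucleotides.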

[2] = system: apolipoprotein B mRNA; assay: LDLr(-/-) mice dose response (Example 44): apolipoprotein B mRNA; type: in vivo, mouse; conditions: six weeks
Description: (§1) LDLr(−/−) mice, purchased from Taconic (Germantown, N.Y.) were used to evaluate antisense oligonucleotides for their potential to lower apolipoprotein B mRNA or protein levels, as well as phenotypic endpoints associated with apolipoprotein B. LDLr(−/−) mice were separated into groups of males and females. LDLr(−/−) mice were dosed intraperitoneally twice a week for six weeks with either 10, 25, or 50 mg/kg of ISIS 147764 (SEQ ID NO: 109) or ISIS 270906 (SEQ ID NO: 856) which is a 4 base mismatch of ISIS 147764, or with saline, or 20 mg/kg of Atorvastatin. At study termination animals were sacrificed and evaluated for several phenotypic markers.

[3] = system: apolipoprotein B mRNA; assay: High fat fed mice, time-dependent effects and after cessation of dosing (Example 51): apolipoprotein B mRNA in liver; type: in vivo, mouse; conditions: for % Inhibition apolipoprotein B mRNA: liver
Description: In a further embodiment of the invention, the inhibition of apolipoprotein B mRNA in mice was compared to liver oligonucleotide concentration, total cholesterol, LDL-cholesterol and HDL-cholesterol. Male C57Bl/6 mice receiving a high fat diet (60% fat) were evaluated over the course of 6 weeks for the effects of treatment with twice weekly intraperitoneal injections of 50 mg/kg ISIS 147764 (SEQ ID NO: 109) or 50 mg/kg of the control oligonucleotide ISIS 141923 (SEQ ID NO: 858). Control animals received saline treatment. Animals were sacrificed after 2 days, 1, 2, 4 and 6 weeks of treatment. Each treatment group at each time point consisted of 8 mice.
Target expression in liver was measured by real-time PCR as described by other examples herein and is expressed as percent inhibition relative to saline treated mice. Total, LDL- and HDL-cholesterol levels were measured by routine clinical analysis using an Olympus Clinical Analyzer (Olympus America Inc., Melville, N.Y.) and are presented in mg/dL. Results from saline-treated animals are shown for comparison. Intact oligonucleotide in liver tissue was measured by capillary gel electrophoresis and is presented as micrograms of oligonucleotide per gram of tissue.
The oligonucleotide treatments described in this example were duplicated to investigate the extent to which effects of ISIS 147764 persist following cessation of treatment. Mice were treated as described, and sacrificed 1, 2, 4, 6 and 8 weeks following the cessation of oligonucleotide treatment.

[4] = LDLr(-/-) mice dose response (Example 44): liver enzyme, cholesterol and triglyceride levels; type: in vivo, mouse; conditions: six weeks
Description: as §1

[5] = system: human apolipoprotein B protein; assay: Transgenic mice (Example 47): serum human apolipoprotein B protein by ELISA; type: in vivo, human transgene in mouse; conditions: 25 mg/kg, relative to saline-treated animals
Description: Serum samples were also collected at 2, 4, 6 and 8 weeks and were evaluated for human apolipoprotein B expression by using a human apolipoprotein B specific ELISA kit (ALerCHEK Inc., Portland, Me.). […] Treatment with ISIS 301012 reduced serum human apolipoprotein B protein by 70, 87, 81 and 41% at 2, 4, 6 and 8 weeks, respectively, relative to saline-treated control animals. Serum from transgenic mice was also subjected to immunoblot analysis using both human and mouse specific apolipoprotein B antibodies (US Biologicals, Swampscott, Mass. and Santa Cruz Biotechnology, Inc., Santa Cruz, Calif., respectively).

[6] = system: apolipoprotein B protein; assay: Apolipoprotein B protein secreted from primary human hepatocytes, ELISA; type: cell-based; conditions: 300 nM
[7] = Transgenic mice dosing study (Example 52): serum total, LDL- and HDL-cholesterol; type: in vivo, mouse
Description: A long-term study of inhibition of human apolipoprotein B by ISIS 301012 in C57BL/6NTac-TgN(APOB100) mice (Taconic, Germantown, N.Y.) was conducted for a 3 month period. Mice were dosed intraperitoneally twice a week with 10 or 25 mg/kg ISIS 301012 (SEQ ID No: 247) for 12 weeks. Saline-injected animals served as controls. Each treatment group comprised 4 animals.
Results are presented as mg/dL in serum and represent the average of 4 animals. Results from the saline control animals are also shown.

[8] = system: human apolipoprotein B protein; assay: Transgenic mice dosing study (Example 52): ELISA of human apolipoprotein B protein in liver; type: in vivo, human transgene in mouse
[9] = female LDLr(-/-) mice, 10 mg/kg i.p. twice a week
[10] = female LDLr(-/-) mice, 25 mg/kg i.p. twice a week
[11] = female LDLr(-/-) mice, 50 mg/kg i.p. twice a week
[12] = male LDLr(-/-) mice, 10 mg/kg i.p. twice a week
[13] = male LDLr(-/-) mice, 25 mg/kg i.p. twice a week
[14] = male LDLr(-/-) mice, 50 mg/kg i.p. twice a week
[15] = male and female LDLr(-/-) mice, 10, 25 or 50 mg/kg i.p. twice a week
[16] = serum, 10 mg/kg i.p. twice a week, 2 weeks
[17] = serum, 10 mg/kg i.p. twice a week, 4 weeks
[18] = serum, 10 mg/kg i.p. twice a week, 6 weeks
[19] = serum, 10 mg/kg i.p. twice a week, 8 weeks
[20] = serum, 10 mg/kg i.p. twice a week, Start
[21] = serum, 25 mg/kg i.p. twice a week, 2 weeks
[22] = serum, 25 mg/kg i.p. twice a week, 4 weeks
[23] = serum, 25 mg/kg i.p. twice a week, 6 weeks
[24] = serum, 25 mg/kg i.p. twice a week, 8 weeks
[25] = serum, 25 mg/kg i.p. twice a week, Start

## 147764 (eG*eT*e[5mC]*e[5mC]*e[5mC]*dT*dG*dA*dA*dG*dA*dT*dG*dT*d[5mC]*eA*eA*eT*eG*e[5mC]) [compound 147764]
[1]
  Glucose: 209.2 mg/dL
  Lipoproteins CHOL: 286.3 mg/dL
  Lipoproteins TRIG: 101.2 mg/dL
  Liver Enzymes ALT: 835.0 IU/L
  Liver Enzymes AST: 406.5 IU/L
  glucose, cholesterol, and triglyceride levels: able to lower
[2]; [9]
  apolipoprotein B mRNA % control: 64.2 % control
[2]; [10]
  apolipoprotein B mRNA % control: 41.3 % control
[2]; [11]
  apolipoprotein B mRNA % control: 18.5 % control
[2]; [12]
  apolipoprotein B mRNA % control: 61.7 % control
[2]; [13]
  apolipoprotein B mRNA % control: 30.7 % control
[2]; [14]
  apolipoprotein B mRNA % control: 16.6 % control
[3]; high fat fed male C57Bl/6 mice, 50 mg/kg i.p. twice weekly, treatment period 1 week
  % Inhibition apolipoprotein B mRNA: 57%
[3]; high fat fed male C57Bl/6 mice, 50 mg/kg i.p. twice weekly, treatment period 2 weeks
  % Inhibition apolipoprotein B mRNA: 73%
[3]; high fat fed male C57Bl/6 mice, 50 mg/kg i.p. twice weekly, treatment period 4 weeks
  % Inhibition apolipoprotein B mRNA: 82%
[3]; high fat fed male C57Bl/6 mice, 50 mg/kg i.p. twice weekly, treatment period 6 weeks
  % Inhibition apolipoprotein B mRNA: 88%
[3]; high fat fed male C57Bl/6 mice, 50 mg/kg i.p. twice weekly, treatment period 2 days
  % Inhibition apolipoprotein B mRNA: 50%
[3]; high fat fed mice, 50 mg/kg i.p. twice weekly, 1 week after cessation of dosing
  % Inhibition apolipoprotein B mRNA: 82%
[3]; high fat fed mice, 50 mg/kg i.p. twice weekly, 2 weeks after cessation of dosing
  % Inhibition apolipoprotein B mRNA: 78%
[3]; high fat fed mice, 50 mg/kg i.p. twice weekly, 4 weeks after cessation of dosing
  % Inhibition apolipoprotein B mRNA: 49%
[3]; high fat fed mice, 50 mg/kg i.p. twice weekly, 6 weeks after cessation of dosing
  % Inhibition apolipoprotein B mRNA: 37%
[3]; high fat fed mice, 50 mg/kg i.p. twice weekly, 8 weeks after cessation of dosing
  % Inhibition apolipoprotein B mRNA: 19%
[4]; [9]
  Lipoproteins CHOL: 269.6 mg/dL
  Lipoproteins HDL: 121.0 mg/dL
  Lipoproteins LDL: 127.8 mg/dL
  Lipoproteins TRIG: 140.8 mg/dL
  Liver Enzymes ALT: 27.2 IU/L
  Liver Enzymes AST: 82.0 IU/L
[4]; [10]
  Lipoproteins CHOL: 175.8 mg/dL
  Lipoproteins HDL: 99.5 mg/dL
  Lipoproteins LDL: 68.9 mg/dL
  Lipoproteins TRIG: 100.4 mg/dL
  Liver Enzymes ALT: 32.2 IU/L
  Liver Enzymes AST: 61.4 IU/L
[4]; [11]
  Lipoproteins CHOL: 138.2 mg/dL
  Lipoproteins HDL: 92.2 mg/dL
  Lipoproteins LDL: 45.9 mg/dL
  Lipoproteins TRIG: 98.0 mg/dL
  Liver Enzymes ALT: 120.4 IU/L
  Liver Enzymes AST: 134.6 IU/L
[4]; [12]
  Lipoproteins CHOL: 314.2 mg/dL
  Lipoproteins HDL: 150.0 mg/dL
  Lipoproteins LDL: 134.7 mg/dL
  Lipoproteins TRIG: 198.6 mg/dL
  Liver Enzymes ALT: 29.8 IU/L
  Liver Enzymes AST: 57.6 IU/L
[4]; [13]
  Lipoproteins CHOL: 185.0 mg/dL
  Lipoproteins HDL: 110.6 mg/dL
  Lipoproteins LDL: 66.2 mg/dL
  Lipoproteins TRIG: 104.2 mg/dL
  Liver Enzymes ALT: 78.8 IU/L
  Liver Enzymes AST: 112.6 IU/L
[4]; [14]
  Lipoproteins CHOL: 165.6 mg/dL
  Lipoproteins HDL: 107.8 mg/dL
  Lipoproteins LDL: 51.2 mg/dL
  Lipoproteins TRIG: 113.4 mg/dL
  Liver Enzymes ALT: 156.8 IU/L
  Liver Enzymes AST: 163.6 IU/L

## ISIS 281625: SEQ ID NO: 224, 2′-MOE gapmer targeted to human apolipoprotein B (antisense eA*eG*eG*eT*eT*dA*d[5mC]*d[5mC]*dA*dG*d[5mC]*d[5mC]*dA*d[5mC]*dA*eT*eG*e[5mC]*eA*eG)
[5]; 2 weeks
  reduction of serum human apolipoprotein B protein (ELISA): 31%
[5]; 4 weeks
  reduction of serum human apolipoprotein B protein (ELISA): 26%
[5]; 6 weeks
  reduction of serum human apolipoprotein B protein (ELISA): 11%
[5]; 8 weeks
  reduction of serum human apolipoprotein B protein (ELISA): 26%

## 113529 (antisense e[5mC]*eT*e[5mC]*eT*eT*dA*d[5mC]*dT*dG*dT*dG*d[5mC]*dT*dG*dT*eG*eG*eA*e[5mC]*eA) [compound 113529]
[6]; 24 hours
  % Change in apolipoprotein B protein secretion: −2%
[6]; 48 hours
  % Change in apolipoprotein B protein secretion: −5%

## GTCCCTGAAGATGTCAATGC (2'-MOE gapmer, further chemistry not given here) [ISIS 147764]
[2]; [15]
  mRNA levels: able to lower cholesterol, triglycerides, and mRNA levels in a dose-dependent manner
[7]; 10 or 25 mg/kg, first 4 weeks of treatment
  LDL-cholesterol: lowered
[3]; high fat fed C57Bl/6 mice, 50 mg/kg i.p. twice weekly
  time of treatment within which inhibition of apolipoprotein B mRNA occurred: ≤ 2 days
[3]; high fat fed C57Bl/6 mice, after 6 weeks of 50 mg/kg twice weekly
  persistence of effects (mRNA inhibition, cholesterol lowering) after termination of treatment: up to 8 weeks
[4]; [15]
  cholesterol, triglycerides: able to lower cholesterol, triglycerides, and mRNA levels in a dose-dependent manner

## ISIS 301012: SEQ ID NO: 247, antisense oligonucleotide targeted to human apolipoprotein B (antisense GCCTCAGTCTGCTTCGCACC; chemistry not given here)
[8]; 10 mg/kg
  reduction in human apolipoprotein B protein in liver (ELISA): 80%
[8]; 20 mg/kg (so in the source)
  reduction in human apolipoprotein B protein in liver (ELISA): 82%
[7]; [16]
  HDL-cholesterol: 69 mg/dL
  LDL-cholesterol: 20 mg/dL
  Total cholesterol: 97 mg/dL
[7]; [17]
  HDL-cholesterol: 78 mg/dL
  LDL-cholesterol: 23 mg/dL
  Total cholesterol: 111 mg/dL
[7]; [18]
  HDL-cholesterol: 72 mg/dL
  LDL-cholesterol: 37 mg/dL
  Total cholesterol: 120 mg/dL
[7]; [19]
  HDL-cholesterol: 79 mg/dL
  LDL-cholesterol: 33 mg/dL
  Total cholesterol: 122 mg/dL
[7]; [20]
  HDL-cholesterol: 70 mg/dL
  LDL-cholesterol: 35 mg/dL
  Total cholesterol: 115 mg/dL
[7]; [21]
  HDL-cholesterol: 73 mg/dL
  LDL-cholesterol: 19 mg/dL
  Total cholesterol: 101 mg/dL
[7]; [22]
  HDL-cholesterol: 76 mg/dL
  LDL-cholesterol: 19 mg/dL
  Total cholesterol: 107 mg/dL
[7]; [23]
  HDL-cholesterol: 80 mg/dL
  LDL-cholesterol: 37 mg/dL
  Total cholesterol: 124 mg/dL
[7]; [24]
  HDL-cholesterol: 91 mg/dL
  LDL-cholesterol: 44 mg/dL
  Total cholesterol: 147 mg/dL
[7]; [25]
  HDL-cholesterol: 64 mg/dL
  LDL-cholesterol: 33 mg/dL
  Total cholesterol: 107 mg/dL
[5]; 2 weeks
  reduction of serum human apolipoprotein B protein (ELISA): 70%
[5]; 4 weeks
  reduction of serum human apolipoprotein B protein (ELISA): 87%
[5]; 6 weeks
  reduction of serum human apolipoprotein B protein (ELISA): 81%
[5]; 8 weeks
  reduction of serum human apolipoprotein B protein (ELISA): 41%

## 301012 (eG*e[5mC]*e[5mC]*eT*e[5mC]*dA*dG*dT*d[5mC]*dT*dG*d[5mC]*dT*dT*d[5mC]*eG*e[5mC]*eA*e[5mC]*e[5mC]) [compound 301012]
[6]; 24 hours
  % Change in apolipoprotein B protein secretion: −41%
[6]; 48 hours
  % Change in apolipoprotein B protein secretion: −48%
